Here are results for 38 compounds from US9221756B2, “Pyrrole derivatives” (priority 2011, dated 2015).

This test deals with pneumolysin (Streptococcus pneumoniae serotype 2, UniProt Q04IN8). In words: Inhibition of the haemolytic activity of pneumolysin (sheep erythrocytes). Format: cell-based. The conditions noted are these: IC50, inhibition of pneumolysin-induced haemolysis of sheep erythrocytes.

Broadly, the IC50 is the point on the concentration scale where inhibition reaches its midpoint. A low value points to greater potency.

Sequence of pneumolysin (Q04IN8 whole entry): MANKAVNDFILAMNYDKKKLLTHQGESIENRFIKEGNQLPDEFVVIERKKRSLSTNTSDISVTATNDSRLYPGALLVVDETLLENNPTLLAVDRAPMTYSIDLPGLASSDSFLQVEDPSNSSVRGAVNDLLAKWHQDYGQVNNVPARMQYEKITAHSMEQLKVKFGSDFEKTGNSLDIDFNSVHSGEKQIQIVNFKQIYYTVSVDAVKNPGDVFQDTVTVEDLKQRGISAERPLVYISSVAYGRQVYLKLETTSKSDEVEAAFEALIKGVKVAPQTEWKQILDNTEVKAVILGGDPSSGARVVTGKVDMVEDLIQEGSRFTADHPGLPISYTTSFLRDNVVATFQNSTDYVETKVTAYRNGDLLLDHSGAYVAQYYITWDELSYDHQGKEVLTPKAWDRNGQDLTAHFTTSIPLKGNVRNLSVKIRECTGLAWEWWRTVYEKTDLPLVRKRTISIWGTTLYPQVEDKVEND

Where the note is “class symbols of Table 1”, `CCOC(=O)c1c(O)c(O)c(C(=O)N(C)C)n1-c1ccc(O)cc1` [UL1-100, ethyl 5-(dimethylcarbamoyl)-3,4-dihydroxy-1-(4-hydroxyphenyl)-1H-pyrrole-2-carboxylate] registered an IC50 of less than 10 µM. With `CN(Cc1ccccc1)C(=O)c1c(O)c(O)c(C(=O)N(C)Cc2ccccc2)n1-c1ccc(F)cc1` [UL1-014, N^2,N^5-dibenzyl-1-(4-fluorophenyl)-3,4-dihydroxy-N^2,N^5-dimethyl-1H-pyrrole-2,5-dicarboxamide], the IC50 (class symbols of Table 1) is less than 10 µM. In turn, `CCOC(=O)c1c(O)c(O)c(C(=O)OCC)n1-c1ccc(F)cc1` [UL2-003, diethyl 1-(4-fluorophenyl)-3,4-dihydroxy-1H-pyrrole-2,5-dicarboxylate] gave an IC50 (class symbols of Table 1) of 10 to 20 µM.

Consider `CCOC(=O)c1c(O)c(O)c(C(=O)N(C)C)n1-c1ccc(OCCCN2CCN(C)CC2)cc1` [UL1-103, ethyl 5-(dimethylcarbamoyl)-3,4-dihydroxy-1-(4-(3-(4-methylpiperazin-1-yl)propoxy)phenyl)-1H-pyrrole-2-carboxylate], for which the IC50 (class symbols of Table 1) is less than 10 µM. On to `CCOC(=O)c1c(O)c(O)c(C(=O)N(C)C)n1-c1ccc(OC)c(I)c1` [UL1-043, ethyl 5-(dimethylcarbamoyl)-3,4-dihydroxy-1-(3-iodo-4-methoxyphenyl)-1H-pyrrole-2-carboxylate], for which the IC50 (class symbols of Table 1) was less than 10 µM. With `CCOC(=O)c1c(O)c(O)c(C(=O)OCC)n1-c1ccc(Oc2ccccc2)cc1` [UL2-007, diethyl 3,4-dihydroxy-1-(4-phenoxyphenyl)-1H-pyrrole-2,5-dicarboxylate], the IC50 (class symbols of Table 1) was less than 10 µM.

`CCOC(=O)c1c(OCc2ccccc2)c(OCc2ccccc2)c(-c2cccnc2)n1-c1ccc(OC)cc1` [UL1-085, ethyl 3,4-bis(benzyloxy)-1-(4-methoxyphenyl)-5-(pyridin-3-yl)-1H-pyrrole-2-carboxylate] showed an IC50 (class symbols of Table 1) of less than 10 µM. The same measure, in the same setting: then `CCOC(=O)c1c(O)c(O)c(C(=O)OCC)n1-c1cc(F)c(OCC)c(F)c1` [UL2-017, diethyl 1-(4-ethoxy-3,5-difluorophenyl)-3,4-dihydroxy-1H-pyrrole-2,5-dicarboxylate], with less than 10 µM; and `CCOC(=O)c1c(O)c(O)c(C(=O)OCC)n1-c1ccc(OCc2ccc(OC)cc2)cc1` [UL2-038, diethyl 3,4-dihydroxy-1-(4-((4-methoxybenzyl)oxy)phenyl)-1H-pyrrole-2,5-dicarboxylate], with less than 10 µM. `CCOC(=O)c1c(O)c(O)c(C(=O)N(C)C)n1-c1ccc(OCCCS(C)(=O)=O)cc1` [UL1-110, ethyl 5-(dimethylcarbamoyl)-3,4-dihydroxy-1-(4-(3-(methylsulfonyl)propoxy)phenyl)-1H-pyrrole-2-carboxylate] displayed an IC50 (class symbols of Table 1) of less than 10 µM.

For the setting “class symbols of Table 1”, `NC(=O)c1c(O)c(O)c(C(N)=O)n1-c1ccc(F)cc1` [UL1-076, 1-(4-fluorophenyl)-3,4-dihydroxy-1H-pyrrole-2,5-dicarboxamide] displayed an IC50 of 10 to 20 µM. For the setting “class symbols of Table 1”, `CCOC(=O)c1c(O)c(O)c(C(=O)N2CCN(C)CC2)n1-c1ccc(OC)cc1` [UL1-037, ethyl 3,4-dihydroxy-1-(4-methoxyphenyl)-5-(4-methylpiperazine-1-carbonyl)-1H-pyrrole-2-carboxylate] yielded an IC50 of less than 10 µM.

In turn, `CCOC(=O)c1c(O)c(O)c(C(=O)N(C)C)n1-c1ccc(F)cc1` [UL1-032, ethyl 5-(dimethylcarbamoyl)-1-(4-fluorophenyl)-3,4-dihydroxy-1H-pyrrole-2-carboxylate] yielded an IC50 (class symbols of Table 1) of less than 10 µM. On to `CCOC(=O)c1c(O)c(O)c(C(=O)N(C)C)n1-c1ccc(OCCCP(=O)(OCC)OCC)cc1` [UL1-106, ethyl 1-(4-(3-(diethoxyphosphoryl)propoxy)phenyl)-5-(dimethylcarbamoyl)-3,4-dihydroxy-1H-pyrrole-2-carboxylate], for which the IC50 is less than 10 µM (class symbols of Table 1) and 0.17 µM (specific values). For the compound `CCOC(=O)c1c(O)c(O)c(C(=O)N(C)C)n1-c1ccc(I)cc1` [UL1-042, ethyl 5-(dimethylcarbamoyl)-3,4-dihydroxy-1-(4-iodophenyl)-1H-pyrrole-2-carboxylate], the IC50 (class symbols of Table 1) was less than 10 µM.

For the setting “class symbols of Table 1”, `CC(C)N(C)C(=O)c1c(O)c(O)c(C(=O)N(C)C(C)C)n1-c1ccc(F)cc1` [UL1-013, 1-(4-fluorophenyl)-3,4-dihydroxy-N^2,N^5-diisopropyl-N^2,N^5-dimethyl-1H-pyrrole-2,5-dicarboxamide] displayed an IC50 of less than 10 µM. Regarding `CCOC(=O)c1c(O)c(O)c(C(=O)OCC)n1-c1ccccc1` [UL2-002, diethyl 3,4-dihydroxy-1-phenyl-1H-pyrrole-2,5-dicarboxylate], where the note is “class symbols of Table 1”, the IC50 is less than 10 µM. Still for that read-out and setting: under `CCOC(=O)c1c(O)c(O)c(C(=O)OCC)n1-c1ccc(C)cc1` [UL2-010, diethyl 3,4-dihydroxy-1-(p-tolyl)-1H-pyrrole-2,5-dicarboxylate] stands less than 10 µM; under `CCN(CC)C(=O)c1c(O)c(O)c(C(=O)N(CC)CC)n1-c1ccc(OC)cc1` [UL1-003, N^2,N^2,N^5,N^5-tetraethyl-3,4-dihydroxy-1-(4-methoxyphenyl)-1H-pyrrole-2,5-dicarboxamide], less than 10 µM; under `CCOC(=O)c1c(O)c(O)c(C#N)n1-c1ccc(F)cc1` [UL1-039, ethyl 5-cyano-1-(4-fluorophenyl)-3,4-dihydroxy-1H-pyrrole-2-carboxylate], 20 to 60 µM. The compound `CCOC(=O)c1c(OC(=O)C(C)(C)COCCOCCOCCOCCOCCOCCOCCOC)c(OC(=O)C(C)(C)COCCOCCOCCOCCOCCOCCOCCOC)c(C(=O)N(C)C)n1-c1ccc(OC)cc1` [UL1-119, 2-(dimethylcarbamoyl)-5-(ethoxycarbonyl)-1-(4-methoxyphenyl)-1H-pyrrole-3,4-diyl bis(25,25-dimethyl-2,5,8,11,14,17,20,23-octaoxahexacosan-26-oate)] showed an IC50 (class symbols of Table 1) of less than 10 µM.

The compound `CCOC(=O)c1c(OCc2ccccc2)c(OCc2ccccc2)c(C(N)=O)n1-c1ccc(OC)cc1` [UL1-079, ethyl 3,4-bis(benzyloxy)-5-carbamoyl-1-(4-methoxyphenyl)-1H-pyrrole-2-carboxylate] showed an IC50 (class symbols of Table 1) of less than 10 µM. In turn, `COc1ccc(-n2c(C(C)=O)c(O)c(O)c2C(=O)N(C)C)cc1` [UL1-091, 5-acetyl-3,4-dihydroxy-1-(4-methoxyphenyl)-N,N-dimethyl-1H-pyrrole-2-carboxamide] registered an IC50 (class symbols of Table 1) of less than 10 µM.

Consider `CCOC(=O)c1c(O)c(O)c(C(=O)OCC)n1-c1cccc(OC)c1` [UL2-004, diethyl 3,4-dihydroxy-1-(3-methoxyphenyl)-1H-pyrrole-2,5-dicarboxylate], for which the IC50 (class symbols of Table 1) was in the range of 10 to 20 µM. Compound `CCOC(=O)c1c(OCc2ccccc2)c(OCc2ccccc2)c(-c2ccncc2)n1-c1ccc(OC)cc1` [UL1-084, ethyl 3,4-bis(benzyloxy)-1-(4-methoxyphenyl)-5-(pyridin-4-yl)-1H-pyrrole-2-carboxylate] gave an IC50 (class symbols of Table 1) of less than 10 µM.

Where the note is “class symbols of Table 1”, `COc1ccccc1-n1c(C(=O)N2CCOCC2)c(O)c(O)c1C(=O)N1CCOCC1` [UL1-020, (3,4-dihydroxy-1-(2-methoxyphenyl)-1H-pyrrole-2,5-diyl)bis(morpholinomethanone)] had an IC50 of less than 10 µM. `CCOC(=O)c1c(O)c(O)c(C(=O)N(C)C)n1-c1ccc(OP(=O)(O)O)cc1` [UL1-101, ethyl 5-(dimethylcarbamoyl)-3,4-dihydroxy-1-(4-(phosphonooxy)phenyl)-1H-pyrrole-2-carboxylate] displayed an IC50 (class symbols of Table 1) of less than 10 µM.

For the compound `CCOC(=O)c1c(O)c(O)c(C(=O)OCC)n1-c1ccc(OC)cc1OC` [UL2-015, diethyl 1-(2,4-dimethoxyphenyl)-3,4-dihydroxy-1H-pyrrole-2,5-dicarboxylate], the IC50 (class symbols of Table 1) was less than 10 µM. The same measure, in the same setting: then `COc1ccc(-n2c(C(N)=O)c(O)c(O)c2C(N)=O)cc1` [UL1-073, 3,4-dihydroxy-1-(4-methoxyphenyl)-1H-pyrrole-2,5-dicarboxamide], with less than 10 µM; and `CCOC(=O)c1c(O)c(O)c(C(=O)OCC)n1-c1ccc(OCCOCCOCCOC)cc1` [UL2-035, diethyl 3,4-dihydroxy-1-(4-(2-(2-(2-methoxyethoxy)ethoxy)ethoxy)phenyl)-1H-pyrrole-2,5-dicarboxylate], with less than 10 µM. Compound `CCOC(=O)c1c(O)c(OCCO)c(C(=O)OCC)n1-c1ccc(OC)cc1` [UL2-026, diethyl 3-hydroxy-4-(2-hydroxyethoxy)-1-(4-methoxyphenyl)-1H-pyrrole-2,5-dicarboxylate] gave an IC50 (class symbols of Table 1) of 20 to 60 µM.

Take `CCOC(=O)c1c(O)c(O)c(C(=O)OCC)n1-c1ccc(Cl)cc1` [UL2-012, diethyl 1-(4-chlorophenyl)-3,4-dihydroxy-1H-pyrrole-2,5-dicarboxylate]: the IC50 (class symbols of Table 1) is less than 10 µM. With `CCOC(=O)c1c(OCc2ccccc2)c(OCc2ccccc2)c(-c2nn[nH]n2)n1-c1ccc(OC)cc1` [UL1-090, ethyl 3,4-bis(benzyloxy)-1-(4-methoxyphenyl)-5-(2H-tetrazol-5-yl)-1H-pyrrole-2-carboxylate], the IC50 (class symbols of Table 1) was less than 10 µM. As for `CCOC(=O)c1c(O)c(O)c(C(=O)NC)n1-c1ccc(OC)cc1` [UL1-099, ethyl 3,4-dihydroxy-1-(4-methoxyphenyl)-5-(methylcarbamoyl)-1H-pyrrole-2-carboxylate], under “class symbols of Table 1”, the IC50 is less than 10 µM. `COc1ccccc1-n1c(C(=O)N(C)C)c(O)c(O)c1C(=O)N(C)C` [UL1-019, 3,4-dihydroxy-1-(2-methoxyphenyl)-N^2,N^2,N^5,N^5-tetramethyl-1H-pyrrole-2,5-dicarboxamide]: for the setting “class symbols of Table 1”, the IC50 is less than 10 µM.

On to `CCOC(=O)c1c(O)c(O)c(-c2nc(CC)cs2)n1-c1ccc(OC)cc1` [UL1-086, ethyl 5-(4-ethylthiazol-2-yl)-3,4-dihydroxy-1-(4-methoxyphenyl)-1H-pyrrole-2-carboxylate], for which the IC50 (class symbols of Table 1) is less than 10 µM. Regarding `CCOC(=O)c1c(O)c(O)c(C(=O)OCC)n1-c1ccc(OCC)cc1` [UL2-008, diethyl 1-(4-ethoxyphenyl)-3,4-dihydroxy-1H-pyrrole-2,5-dicarboxylate], the IC50 (class symbols of Table 1) was less than 10 µM. In turn, `CCOC(=O)c1c(O)c(O)c(C(=O)OCC)n1-c1cccc(Oc2ccccc2)c1` [UL2-018, diethyl 3,4-dihydroxy-1-(3-phenoxyphenyl)-1H-pyrrole-2,5-dicarboxylate] showed an IC50 (class symbols of Table 1) of less than 10 µM.
